Data on one compound can be found in patent publication US20030229072A1, “Cyclic and acyclic amidines and pharmaceutical compositions containing them for use as progesterone receptor binning agents” (priority 2000, published 2003).

One may read the melting point as the temperature of the solid-liquid transition.

Take `Cc1cc([N+](=O)[O-])ccc1/N=C1/C2CC3CC(C2)CC(C3)N1CC(C)C` [Example 54, N-(4-Isobutyl-4-azatricyclo[4.3.1.1^3,8]undec-5-ylidene)-2-methyl-4-nitroaniline]: the melting point was 101 to 102 °C.
